Results taken from ChEMBL document CHEMBL1151554, “Non thiazolidinedione antihyperglycaemic agents. 1: -Heteroatom substituted -phenylpropanoic acids” (Bioorg Med Chem Lett, 1996).

System: Mus musculus
Test: In vivo inhibition of glucose load induced hyperglycaemia in fasted C57B1/6 ob/ob mice.
Format: functional

| Compound | ED25 |
| --- | --- |
| COC(=O)C(Cc1ccc(OCCN(C)c2nc3ccccc3o2)cc1)Sc1ccccc1 (stereo unspecified) | 30 µM/kg |
| CN(CCOc1ccc(CC(S)C(=O)O)cc1)c1nc2ccccc2o1 (stereo unspecified) | 300 µM/kg |
| CN(CCOc1ccc(CC(F)C(=O)O)cc1)c1nc2ccccc2o1 (stereo unspecified) | 10 µM/kg |
| COC(=O)C(Cl)Cc1ccc(OCCN(C)c2nc3ccccc3o2)cc1 (stereo unspecified) | 10 µM/kg |
| CN(CCOc1ccc(CC(OCc2ccccc2)C(=O)[O-])cc1)c1nc2ccccc2o1.[Na+] (stereo unspecified) | 0.3 µM/kg |
| CN(CCOc1ccc(CC(Sc2ccccc2)C(=O)O)cc1)c1nc2ccccc2o1 (stereo unspecified) | 30 µM/kg |
| COC(=O)C(Cc1ccc(OCCN(C)c2nc3ccccc3o2)cc1)OC (stereo unspecified) | 3 µM/kg |
| CN(CCOc1ccc(CC(Nc2ccccc2)C(=O)O)cc1)c1nc2ccccc2o1 (stereo unspecified) | 30 µM/kg |
| CCCOC(Cc1ccc(OCCN(C)c2nc3ccccc3o2)cc1)C(=O)[O-].[Na+] (stereo unspecified) | 0.3 µM/kg |
| CN(CCOc1ccc(CC(Cl)C(=O)O)cc1)c1nc2ccccc2o1 (stereo unspecified) | 10 µM/kg |
| CN(CCOc1ccc(CC(Oc2ccccc2)C(=O)O)cc1)c1nc2ccccc2o1 (stereo unspecified) | 1 µM/kg |
| CN(CCOc1ccc(CC(C(=O)O)S(=O)(=O)c2ccccc2)cc1)c1nc2ccccc2o1 (stereo unspecified) | 1000 µM/kg |
| COC(Cc1ccc(OCCN(C)c2nc3ccccc3o2)cc1)C(=O)O (stereo unspecified) | 3 µM/kg |
| CN(CCOc1ccc(CC(OCCc2ccccc2)C(=O)O)cc1)c1nc2ccccc2o1 (stereo unspecified) | 1 µM/kg |
| COC(=O)C(Cc1ccc(OCCN(C)c2nc3ccccc3o2)cc1)SC (stereo unspecified) | 100 µM/kg |
| CN(CCOc1ccc(CC2SC(=O)NC2=O)cc1)c1nc2ccccc2o1 (stereo unspecified) [BRL-48482] | 3 µM/kg |
| COC(=O)C(Cc1ccc(OCCN(C)c2nc3ccccc3o2)cc1)N(C)C (stereo unspecified) | 1000 µM/kg |
| COC(=O)C(Br)Cc1ccc(OCCN(C)c2nc3ccccc3o2)cc1 (stereo unspecified) | 100 µM/kg |
| COC(=O)C(Cc1ccc(OCCN(C)c2nc3ccccc3o2)cc1)OC(C)C (stereo unspecified) | <0.3 µM/kg |
| COC(=O)CCc1ccc(OCCN(C)c2nc3ccccc3o2)cc1 | >2000 µM/kg |
| Cc1c(C)c2c(c(C)c1O)CCC(C)(COc1ccc(CC3SC(=O)NC3=O)cc1)O2 (stereo unspecified) [TROGLITAZONE] | 400 µM/kg |
| CCOC(Cc1ccc(OCCN(C)c2nc3ccccc3o2)cc1)C(=O)O (stereo unspecified) | 0.1 µM/kg |
| CNC(Cc1ccc(OCCN(C)c2nc3ccccc3o2)cc1)C(=O)OC (stereo unspecified) | 1000 µM/kg |

Molecular target: T1, Peroxisome proliferator-activated receptor gamma (Homo sapiens, UniProt P37231)
T1 sequence (P37231 whole entry): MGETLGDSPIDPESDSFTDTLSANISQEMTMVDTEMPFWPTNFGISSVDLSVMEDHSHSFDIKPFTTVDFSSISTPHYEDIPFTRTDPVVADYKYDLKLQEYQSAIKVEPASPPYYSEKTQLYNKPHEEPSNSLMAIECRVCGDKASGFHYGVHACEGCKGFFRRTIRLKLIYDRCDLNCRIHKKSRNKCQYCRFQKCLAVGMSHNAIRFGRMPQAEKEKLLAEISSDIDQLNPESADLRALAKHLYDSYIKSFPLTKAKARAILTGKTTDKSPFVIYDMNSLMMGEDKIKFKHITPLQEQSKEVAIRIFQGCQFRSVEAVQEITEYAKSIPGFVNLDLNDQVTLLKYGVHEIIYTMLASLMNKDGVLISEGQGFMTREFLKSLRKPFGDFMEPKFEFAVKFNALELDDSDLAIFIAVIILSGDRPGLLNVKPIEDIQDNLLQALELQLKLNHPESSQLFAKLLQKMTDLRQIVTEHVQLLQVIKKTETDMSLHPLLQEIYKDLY
Description: inhibition of [125I]SB 236636 binding to human PPAR gamma receptor

| Compound | Ki |
| --- | --- |
| CN(CCOc1ccc(CC(Sc2ccccc2)C(=O)O)cc1)c1nc2ccccc2o1 (stereo unspecified) | 37 nM |
| CN(CCOc1ccc(CC(Oc2ccccc2)C(=O)O)cc1)c1nc2ccccc2o1 (stereo unspecified) | 0.4 nM |

Molecular target: T2, Peroxisome proliferator-activated receptor gamma (Homo sapiens) (UniProt P37231)
T2 sequence (whole entry): T1 sequence (P37231 whole entry)

| Compound | Displacement |
| --- | --- |
| COC(=O)C(Cc1ccc(OCCN(C)c2nc3ccccc3o2)cc1)N(C)C (stereo unspecified) | 26% |
